| melting point [°C] | Structure (SMILES) |
| --- | --- |
| 151 to 152 | CCOC(=O)C(=O)CC(=O)c1cn(Cc2ccc(F)cc2)c2cc(F)ccc2c1=O |
| 238 | COc1ccc(-c2[nH]nc3c2C(=O)c2c(NC(=O)Cc4ccc(Cl)cc4)cccc2-3)cc1 |
| 135 to 137 | O=C(O)c1cc(F)cc(-c2cccc3cc(Cc4ccc(F)c(Cl)c4)sc23)c1 |
| 122 to 123 | CC1=C(C(=O)OCC2CCCO2)C(c2cccc([N+](=O)[O-])c2)C(C(=O)OCC2CCCO2)=C(C)N1 (stereo unspecified) |
| 191 to 194 | O=C(O)COc1ccc(C(=O)C=Cc2ccccc2F)c(Cl)c1Cl |
| 108 | O=S(=O)(CCl)c1ccc(O)c(Cl)c1 |
| 235 to 240 | N#Cc1cc(C#N)c(-c2ccc(Cl)cc2)[nH]1 |
| 105 to 106 | COc1ccc2c(=O)cc(-c3ccc(OCC(O)CNC4CC4)cc3)oc2c1 (stereo unspecified) |
| 258 to 259 | CC(=O)Nc1c(C(=O)Cc2ccccc2)[nH]c2cc(Cl)ccc12 |
| 140 to 142 | CCNc1ccc(S(=O)c2ccccc2)cc1N (stereo unspecified) |
| 84 to 86 | COC(=O)c1cc2c(Cl)cccc2s1 |
| 104 to 106 | Cc1cc(-c2ccccc2Cl)nn1C(C)(C)C(=O)N(C)C |
| 163 to 165 | COc1cc(/C=C/C(=O)Nc2ccc(Br)cc2)ccc1F |
| 112 to 113 | Fc1cccc(F)c1-c1ccc2ncccc2c1 |
| 288 to 289 | O=c1[nH]c2cc(Cl)ccc2c(=O)n1Cc1ccc(Br)cc1F |
| 158 to 160 | Cc1ccc(-n2nc(C(F)(F)F)cc2-c2ccc(S(C)(=O)=O)cc2)cc1F |
| 108 to 110 | Cn1cccc1C(=O)c1cc([N+](=O)[O-])ccc1Cl |

| melting point [°C] | Structure (SMILES) |
| --- | --- |
| 143 to 144 | OCc1ccnc(OCc2cn3c(Cl)cccc3n2)c1 |
| 135 to 137 | Cc1cc([N+](=O)[O-])c(C)c(Cl)c1Oc1ccc(Cl)c2ccccc12 |
| 199 to 202 | O=C(O)c1cc2cccnc2nc1C(=O)O |
| 58 to 60 | Cc1ccc(C(=Cc2nnnn2C)c2ccc(C)cc2F)c(F)c1 |
| 55 | C=CC(O)c1ccc([N+](=O)[O-])cc1 (stereo unspecified) |
| 112 to 115 | COC(=O)Cc1cc(Oc2nn(C)c(C(F)(F)F)c2Cl)ccc1[N+](=O)[O-] |
| 187 to 189 | CCCC(=O)c1cnc2c(OC)cccc2c1Nc1ccc(CO)cc1 |
| 244 to 248 | NC(=O)N1C(=O)C(=C(OC(=O)c2cccc(C(=O)O)c2)c2cccs2)c2cc(F)c(Cl)cc21 |
| 173 to 174 | N#CCn1nnc(NC(=O)C(c2ccccc2)c2ccccc2)n1 |
| 121 to 122 | CCOC(=O)CNC(=O)Oc1ccc([N+](=O)[O-])c2cccnc12 |
| 80 to 82 | Cc1ccc(-c2ccc3c(c2)C=C(C(=O)OC(C)(C)C)CO3)cc1 |
| 149 to 152 | Cn1c(C(F)(F)F)cc(=O)n(-c2ccc3snc(C(=O)O)c3c2)c1=O |
| 209 to 210 | O=Cc1nn(-c2ccc([N+](=O)[O-])cc2)c2c1CCC2 |
| 172 | ON=C1c2sccc2-n2cccc21 |
| 145 to 148 | CCCCNC(=O)NS(=O)(=O)c1ccccc1-c1ccc(C(=O)OC)o1 |
| 164 to 166 | CC1CC(=O)N(c2ccccn2)N=C1c1ccc(OC2CCN(C(=O)OC(C)(C)C)CC2)cc1 (stereo unspecified) |

Further lines, the compound ahead of its results:

| Structure (SMILES) | melting point [°C] |
| --- | --- |
| CCOc1ccc2c(c1)n(C1CCCCC1)c(=O)n2S(=O)(=O)c1ccc(C(=O)NC2Cc3ccccc3C2)cc1OC | 160 |
| CC#CC(=O)Nc1cccc(-c2ccnc3c(C(=O)c4cccs4)cnn23)c1 | 202 to 203 |
| CCOCc1nc2c(N)nc3ccccc3c2n1CCCC(=O)N(C)OC | 163 to 165 |
| N#CC1(c2ccc(OCc3ccc(F)cc3)c(OC3CCCC3)c2)CCC(=O)CC1 | 145 to 146 |
| O=C(CS(=O)Cc1cccnc1)C12CC3CC(CC(C3)C1)C2 (stereo unspecified) | 116 to 119 |
| CC(Cc1cccc([N+](=O)[O-])c1)[N+](=O)[O-] (stereo unspecified) | 56 to 58 |
| OC(COc1ccccc1-c1cc[nH]n1)CN1CCN(c2ccc(Cl)cc2)CC1 (stereo unspecified) | 120 to 121 |
| Cc1c(Br)ccc(N)c1S(C)(=O)=O | 103 to 106 |
| CCc1cc(CC)c(-c2c(OCS(C)(=O)=O)c(C)nn(C)c2=O)c(CC)c1 | 142 to 143 |
| CCOC(=O)[C@H](CSCc1ccccc1)NC(=O)C(C)(C)NC(=O)[C@@H](S)C(C)C | 87 to 91 |
| CC1CN(c2c(F)cc3c(=O)c(C(=O)O)cn(C4CC4)c3c2F)CC1CN (stereo unspecified) | 249 to 252 |
| CS(=O)(=O)Oc1ccc2c(c1)CN(C(=O)CCCCCN1CCN(c3cccc(C(F)(F)F)c3)CC1)C2 | 109 |
| CC12CC(O)C3(F)C(CCC4=CC(=O)C=CC43C)C1CCC2S (stereo unspecified) | 295 to 297 |
| CCCOC(=O)C(N)C=CCP(=O)(O)O (stereo unspecified) | 161 to 162 |
| CNC(=S)NCCSCc1csc(N)n1 | 136 to 140 |
| CCS(=O)(=O)N(C(C)=O)c1cc(-n2nc(C(F)(F)F)n(C)c2=O)c(F)cc1C#N | 179 |
| CS(=O)(=O)N[C@@H]1CCCC[C@H]1OCC(=O)O (relative stereo) | 119 to 121 |
| COC(=O)c1ccc2c(c1)C(=O)C(=Cc1ccc(OC)c(OC)c1OC)O2 | 181 to 183 |
| Cc1nnc(NCc2ccccc2)s1 | 140 |
| CC(C)(C)[Si](C)(C)Oc1cccc(C2(Br)C(=O)NC(=O)NC2=O)c1 | 170 to 172 |
| O=C1CN2Cc3ccccc3N=C2N1 | > 285 |
| Cc1c(S(C)(=O)=O)ccc(C(=O)C2SCCCC2=O)c1Cl (stereo unspecified) | 142 to 144 |
| O=C(NNCCc1ccc(O)cc1)OCc1ccccc1 | 94 to 97 |

| Structure (SMILES) | melting point [°C] |
| --- | --- |
| CCOC(=O)C1=C(COCCNS(N)(=O)=O)NC(C)=C(C(=O)OC)C1c1ccccc1Cl (stereo unspecified) | 150 to 152 |
| COc1cccc(P(=O)(c2ccc(C)cc2)c2ccc(C)cc2)c1I | 146 to 148 |
| C=CCOc1ccc(-c2nc3cnccc3[nH]2)c(OC(C)C)c1 | 179 |
| O=C(O)c1ccccc1OCCN1CCC(c2cn(Cc3ccco3)c3cc(F)ccc23)CC1 | 174 to 175 |
| COc1cc(/C=C(\C#N)c2c[nH]c3ccc(OC)cc23)cc(OC)c1 | 141 |
| CC(=O)NC[C@H]1CN(c2ccc(N3CCC(C#N)(NNC(=O)c4cccs4)CC3)c(F)c2)C(=O)O1 | 226 to 230 |
| Cc1nc(O)sc1-c1cn2cccnc2n1 | > 300 |
| CC(C)(CC(O)(CO)C(F)(F)F)c1cc(Br)cc2c1OCC2 (stereo unspecified) | 124 to 128 |
| CC(=O)Oc1ccc(-c2c(C)c3cccc(OC(C)=O)c3oc2=O)c(OC(C)=O)c1 | 119 to 120 |
| N[C@@H](CC(C(=O)O)=C1CCCC1)C(=O)O | 205 |
| Cc1cc(F)c(N)cc1-n1cc(C(=O)O)c(=O)c2cc(F)c(N)c(C)c21 | > 240 |
| CCOC(=O)C1=C(C)NC(N=CCN(C)C)=C(C(=O)OCC)C1c1ccccc1 (stereo unspecified) | 126 |
| S=C(Cc1ccc2c(c1)CCO2)N1CCOCC1 | 141 to 143 |
| CCOC(=O)c1csc(Nc2ccc(Br)cn2)n1 | 300 to 301 |
| CCCCNC(=O)[C@@H](C[C@H](O)[C@H](CC1CCCCC1)NC(=O)OC(C)(C)C)C(C)C | 115 to 118 |
| CC1Cc2ccc(Br)cc2C(c2ccc(N)cc2)=NN1C(=O)C(F)(F)F (stereo unspecified) | 93 to 96 |
| CSc1ncc(Cc2ccccn2)c(=O)[nH]1 | 195 to 198 |
| O=C1C(=Cc2ccccc2)SC(=S)N1N=c1sc2ccccc2s1 | 288 to 289 |
| CC(C)C(=O)Oc1cccc2c(-c3ccccc3)c3cccc(OC(=O)C(C)C)c3c(OC(=O)C(C)C)c12 | 224 |
| Cc1c2c(c(C)c3c1NC(C)(C)C3)OC(C)(CI)C2 (stereo unspecified) | 100 to 104 |
| COc1cc(OC)c(C23CC4CC(CC(C4)C2)C3)cc1C(=O)Oc1ccc(C(=O)O)cc1 | 236 to 238 |
| COc1cc2cc(CO)c(CO)c(-c3ccnc(N4CCC(O)c5ccccc54)c3)c2cc1OC (stereo unspecified) | 90 to 94 |
| CC(C)OC(=O)Cn1c(=O)n(C)c(=O)n(-c2cc(N=c3sc(=O)n4n3CCCC4)c(F)cc2Cl)c1=O | 97 to 107 |

| Structure (SMILES) | melting point [°C] |
| --- | --- |
| CCCCOc1ccc(C(=O)NCCC(=O)O)cc1 | 144 to 146 |
| CCOC(=O)NNC(C)=S | 54 to 57.5 |
| CSC(=S)C1(c2ccccn2)OCCCS1 (stereo unspecified) | 116 |
| N#Cc1ncc(NCCO)nc1N1CCN(c2ccc(F)cc2)CC1 | 149 to 151 |
| COc1cc(OC)c(N2CCCC2)cc1/C=C/C(=O)c1ccc(S(=O)(=O)NCC(=O)O)cc1 | 155 to 158 |
| CC(N)c1ccc2c(c1)CCCN2C(=O)OC(C)(C)C (stereo unspecified) | 73 to 75 |
| FC(F)(F)Sc1c(-c2ccc(Cl)cc2)[nH]c(C(F)(F)F)c1Br | 87 to 88.5 |
| COC(=O)c1nccnc1NCc1ccncc1 | 95 |
| CCCCCCCCCCCCC(=O)CC(O)Cc1ccccc1 (stereo unspecified) | 40 to 43 |
| C=C1c2ccccc2C2(CCN(C)CC2)c2cccc(O)c21 | 117 to 120 |
| CCCn1c(=O)c2c(nc(/C=C/c3cccs3)n2C)n(CCC)c1=O | 185 to 186 |
| O=C1Nc2ccccc2CCC1(Cl)Cl | 185 to 187 |
| CN(C(=O)OC(C)(C)C)[C@H](Cc1ccc(Cl)c(Cl)c1)[C@H](O)CC(=O)N[C@@H]1CCCCNC1=O | 187 |
| O=C(Oc1cc(/C=C/c2ccc(O)cc2)cc(OC(=O)c2cc(O)c(O)c(O)c2)c1)c1cc(O)c(O)c(O)c1 | 210 to 212 |
| O=C(Nc1cccc2c1C(=O)c1c-2n[nH]c1C1CCN(C(=O)Oc2ccccc2)CC1)NN1CCOCC1 | 250 to 252 |
| O=C1COc2cc(NC(=O)C(=O)N3CCC(C(O)c4ccccc4)CC3)ccc2N1 (stereo unspecified) | 195 to 197 |
| CSc1ncnc2c(N(C)C3CCCCC3)nc(Cl)nc12 | 135 to 137 |
| CCCn1cc2c(C3C(=O)Nc4ccc(C#N)cc43)nc(Cl)nc2n1 (stereo unspecified) | > 300 |
| Cc1cc(Br)cnc1CCCCNc1ncc(Cc2ccc3c(c2)OCO3)c(=O)[nH]1 | 145 to 146 |
| O=C(NCc1ccc(Cl)cc1)c1cn2c(CCO)cc3cc(CN4CCOCC4)cc(c1=O)c32 | 169 to 172 |
| CCCCNC(=O)c1cc(C(C)(C)C)c(O)c(C(C)(C)C)c1 | 181 to 183 |
| CC(C)CCCC(C)C1CC=C2C3=C(CCC21C)C1(C)CCC(F)CC1CC3 (stereo unspecified) | 98.6 |

From a melting point compilation (Tetko et al.; mined from patent text by program, amines drawn as free bases though some values may be those of a salt)
